Data taken from patent US11479802B2, “Assays for screening activity of modulators of members of the hydroxy steroid (17-beta) dehydrogenase (HSD17B) family” (Regeneron Pharmaceuticals, Inc., priority 2017, dated 2022).

How the values were obtained:
Type in all cases: biochemical
HSD17B5 = target: T1, HSD17B5 (Homo sapiens, UniProt P42330); assay: Steroid substrate panel against HSD17B family member B5; conditions: substrate at 50 μM; estradiol set as 100%
T1 construct: made in house
T1 sequence (P42330 1-323): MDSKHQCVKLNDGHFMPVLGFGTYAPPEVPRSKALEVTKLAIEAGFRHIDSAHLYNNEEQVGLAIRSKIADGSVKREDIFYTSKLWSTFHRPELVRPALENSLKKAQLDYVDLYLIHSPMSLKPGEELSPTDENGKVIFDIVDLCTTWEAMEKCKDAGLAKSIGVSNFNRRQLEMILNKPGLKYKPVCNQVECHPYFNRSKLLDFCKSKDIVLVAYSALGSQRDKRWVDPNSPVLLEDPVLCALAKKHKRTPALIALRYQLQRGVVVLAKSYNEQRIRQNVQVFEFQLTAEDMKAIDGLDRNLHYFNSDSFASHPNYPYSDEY
Method: (§1) To understand the functional consequences of premature truncation of the HSD17B13 protein due to rs72613567:TA (the associated variant, rs72613567, is an insertion of an adenine adjacent to the donor splice site of exon six (TA allele)), the enzymatic activity of isoforms A and D was evaluated in vitro using recombinant protein and nicotinamide […] dinucleotide as cofactor. Reactions were performed in a final volume of 40 μl of assay buffer (0.2 M Tris-HCl, pH 7.5) which contained 500 μM NAD^+, 5 μM bioactive lipid or 50 μM steroid (all in a final concentration of 5% DMSO), and 100 ng of recombinant human HSD17B13. Reactions were incubated for 3 hours, at 23° C., after which an equal volume detection reagent was added. Following a 1 hour incubation at 23° C., the relative light units (RLUs) were measured on an Envision Plate Reader (Perkin Elmer). Raw RLU values were normalized as percent of control (50 μM estradiol) following subtraction of negative control (5% DMSO) using the following formula: Percent of control (POC)=100×(Sample (RLU)−Negative CTRLaverage)/(Positive CTRLaverage−Negative CTRLaverage).
(§2) In order to determine specificity of compounds with inhibitory activity against HSD17B13, assays for selected members of the HSD17B family which includes HSD17B1-HSD17B14 were established. As a first step, selected family members were expressed, purified and tested for activity a using a steroid substrate panel. Substrates from the steroid panel were tested at 50 μM, using the standard assay protocol. Activity against the substrates for each HSD17B family member were normalized to Percent of Control (POC). The control, estradiol, was set as 100%.

HSD17B10 = target: T2, HSD17B10 (Homo sapiens, UniProt Q99714); assay: Steroid substrate panel against HSD17B family member B10; conditions: substrate at 50 μM; estradiol set as 100%
T2 construct: made in house
T2 sequence (Q99714 1-261): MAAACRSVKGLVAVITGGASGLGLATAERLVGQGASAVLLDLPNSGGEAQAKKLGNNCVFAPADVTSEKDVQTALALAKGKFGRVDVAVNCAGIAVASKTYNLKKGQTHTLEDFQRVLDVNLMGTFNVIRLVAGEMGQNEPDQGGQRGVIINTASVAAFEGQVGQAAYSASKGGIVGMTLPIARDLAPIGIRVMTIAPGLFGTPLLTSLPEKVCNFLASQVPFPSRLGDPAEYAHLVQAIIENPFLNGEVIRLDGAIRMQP
Method: as §1, §2

HSD17B4 = target: T3, HSD17B4 (Homo sapiens, UniProt P51659); assay: Steroid substrate panel against HSD17B family member B4; conditions: substrate at 50 μM; estradiol set as 100%
T3 construct: made in house
T3 sequence (P51659 1-736): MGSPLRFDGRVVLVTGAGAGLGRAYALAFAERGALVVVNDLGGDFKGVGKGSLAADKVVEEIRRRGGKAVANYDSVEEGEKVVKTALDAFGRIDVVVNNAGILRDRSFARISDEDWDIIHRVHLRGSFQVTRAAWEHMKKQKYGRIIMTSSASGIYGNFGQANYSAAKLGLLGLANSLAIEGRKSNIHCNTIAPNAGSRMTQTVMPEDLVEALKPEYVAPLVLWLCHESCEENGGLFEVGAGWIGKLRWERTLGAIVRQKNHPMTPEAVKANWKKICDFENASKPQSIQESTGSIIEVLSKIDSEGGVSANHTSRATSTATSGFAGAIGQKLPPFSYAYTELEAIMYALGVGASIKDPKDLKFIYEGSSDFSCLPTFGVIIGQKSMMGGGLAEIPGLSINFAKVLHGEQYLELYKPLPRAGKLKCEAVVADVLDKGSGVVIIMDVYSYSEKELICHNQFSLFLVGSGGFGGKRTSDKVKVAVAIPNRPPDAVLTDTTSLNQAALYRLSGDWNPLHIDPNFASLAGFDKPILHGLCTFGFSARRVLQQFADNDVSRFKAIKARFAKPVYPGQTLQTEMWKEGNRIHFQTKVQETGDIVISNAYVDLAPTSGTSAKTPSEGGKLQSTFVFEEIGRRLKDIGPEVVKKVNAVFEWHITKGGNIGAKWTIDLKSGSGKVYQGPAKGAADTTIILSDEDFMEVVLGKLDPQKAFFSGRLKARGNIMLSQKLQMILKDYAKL
Method: as §1, §2

HSD17B1 = target: T4, HSD17B1 (Homo sapiens, UniProt P14061); assay: Steroid substrate panel against HSD17B family member B1; conditions: substrate at 50 μM; estradiol set as 100%
T4 construct: made in house
T4 sequence (P14061 1-328): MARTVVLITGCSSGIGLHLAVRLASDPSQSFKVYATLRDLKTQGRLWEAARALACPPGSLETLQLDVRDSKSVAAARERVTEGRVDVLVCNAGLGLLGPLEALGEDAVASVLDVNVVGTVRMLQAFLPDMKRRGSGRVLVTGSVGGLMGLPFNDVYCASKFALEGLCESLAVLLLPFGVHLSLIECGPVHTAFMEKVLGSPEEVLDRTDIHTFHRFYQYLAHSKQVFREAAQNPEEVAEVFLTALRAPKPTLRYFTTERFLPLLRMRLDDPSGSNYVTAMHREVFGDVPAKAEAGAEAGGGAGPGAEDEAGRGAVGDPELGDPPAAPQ
Method: as §1, §2

HSD17B2 = target: T5, HSD17B2 (Homo sapiens, UniProt P37059); assay: Steroid substrate panel against HSD17B family member B2; conditions: substrate at 50 μM; estradiol set as 100%
T5 construct: made in house
T5 sequence (P37059 1-387): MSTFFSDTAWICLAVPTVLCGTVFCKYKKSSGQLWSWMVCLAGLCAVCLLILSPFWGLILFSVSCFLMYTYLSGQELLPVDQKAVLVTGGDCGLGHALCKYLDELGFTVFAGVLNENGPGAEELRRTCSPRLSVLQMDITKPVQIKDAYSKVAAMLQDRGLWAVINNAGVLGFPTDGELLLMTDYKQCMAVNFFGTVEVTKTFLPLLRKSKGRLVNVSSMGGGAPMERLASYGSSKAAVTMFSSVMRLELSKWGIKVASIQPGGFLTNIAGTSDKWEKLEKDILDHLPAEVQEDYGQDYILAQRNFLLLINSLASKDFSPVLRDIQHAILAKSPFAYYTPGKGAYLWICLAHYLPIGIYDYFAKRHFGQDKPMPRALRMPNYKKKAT
Method: as §1, §2

human HSD17B13 = target: T6, human HSD17B13 (Homo sapiens, UniProt Q7Z5P4); assay: Substrate screening of steroid and bioactive lipid libraries against purified recombinant HSD17B13 (NADH-linked luciferase assay); conditions: Steroid Library, 50 μM steroid; for HSD17B13 Enzymatic Activity Relative Light Units: 500 μM NAD+, 100 ng enzyme, 3 hours at 23° C.; for HSD17B13 Enzymatic Activity Percent Estradiol Control: normalized to 50 μM estradiol after subtraction of 5% DMSO
T6 sequence (Q7Z5P4 20-300): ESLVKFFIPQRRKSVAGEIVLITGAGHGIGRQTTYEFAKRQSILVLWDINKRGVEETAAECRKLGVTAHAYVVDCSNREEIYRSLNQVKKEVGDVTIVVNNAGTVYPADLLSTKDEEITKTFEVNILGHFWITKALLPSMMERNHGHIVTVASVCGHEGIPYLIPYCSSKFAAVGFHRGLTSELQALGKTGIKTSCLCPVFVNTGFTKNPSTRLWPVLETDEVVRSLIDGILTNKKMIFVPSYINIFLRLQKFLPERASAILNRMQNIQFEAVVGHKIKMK
Outline: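 Substrates (bioactive lipids 5 μM, steroids 50 μM; 5% DMSO) tested with 500 μM NAD+ and 100 ng recombinant human HSD17B13 in 0.2 M Tris-HCl pH 7.5, 3 h, 23° C. Luminescent NADH detection followed 1 h later; RLU normalized to estradiol (50 μM, 100%) and DMSO (0%) controls.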

HSD17B11 = target: T7, HSD17B11 (Homo sapiens, UniProt Q8NBQ5); assay: Steroid substrate panel against HSD17B family member B11; conditions: substrate at 50 μM; estradiol set as 100%
T7 construct: made in house
T7 sequence (Q8NBQ5 20-300): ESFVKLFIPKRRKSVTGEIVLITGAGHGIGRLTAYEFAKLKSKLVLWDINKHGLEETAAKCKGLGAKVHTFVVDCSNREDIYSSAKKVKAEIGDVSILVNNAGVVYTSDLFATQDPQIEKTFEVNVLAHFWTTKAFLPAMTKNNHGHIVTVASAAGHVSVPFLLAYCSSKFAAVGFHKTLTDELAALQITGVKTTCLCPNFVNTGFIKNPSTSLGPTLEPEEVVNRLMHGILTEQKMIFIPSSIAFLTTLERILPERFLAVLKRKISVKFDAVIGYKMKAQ
Method: as §1, §2

SMILES | Percent of Control (POC), B5 (HSD17B5) [%] | Percent of Control (POC), B10 (HSD17B10) [%] | Percent of Control (POC), B4 (HSD17B4) [%] | Percent of Control (POC), B1 (HSD17B1) [%] | Percent of Control (POC), B2 (HSD17B2) [%] | HSD17B13 Enzymatic Activity Relative Light Units (human HSD17B13) [RLU] | HSD17B13 Enzymatic Activity Percent Estradiol Control (human HSD17B13) [%] | Percent of Control (POC), B11 (HSD17B11) [%]
C[C@]12CC[C@@H](O)C[C@@H]1CC[C@@H]1[C@@H]2CC[C@]2(C)C(=O)[C@H](O)C[C@@H]12 [16alpha-Hydroxyandrosterone] | 45 | 69.7 | 0.5 | 0.0 | 1.5 | 221840 | 1.07 | 0.0
C[C@]12CC[C@@H](O)C[C@@H]1CC[C@@H]1[C@@H]2C(=O)C[C@]2(C)C(=O)CC[C@@H]12 [11-oxo-androsterone] | 0 | 31.4 | 0.4 | 0.0 | 0.0 | 196640 | 0.63 | 0.0
CC(=O)OCC(=O)[C@H]1CC[C@H]2[C@@H]3CCC4=CC(=O)CC[C@]4(C)[C@H]3[C@@H](O)C[C@]12C [Corticosterone 21-acetate] | 0 | 0.3 | 0.1 | −0.1 | 0.0 | 190160 | 0.52 | 32.2
C[C@]12CC[C@@H](O)C[C@@H]1CC[C@@H]1[C@@H]2CC[C@]2(C)[C@@H](O)CC[C@@H]12 [3a-androstanediol] | 196 | −0.4 | 16.4 | 0.0 | 6.2 |  |  | 0.0
CC[C@H]1[C@@H](O)[C@@H]2[C@H](CC[C@]3(C)[C@@H]([C@H](C)CCC(=O)O)CC[C@@H]23)[C@@]2(C)CC[C@@H](O)C[C@@H]12 [6-ethylchenodeoxycholic acid] | 192 | 39.3 | 4.6 | 0.0 | 0.1 | 76200 | −1.47 | 0.0
C[C@]12CC[C@@H](O)C[C@@H]1CC[C@@H]1[C@@H]2[C@@H](O)C[C@@]2(C)[C@H]1CC[C@]2(O)C(=O)CO [5alpha-Tetrahydrocortisol] | 0 | 46.3 | 0.2 | −0.1 | 3.1 | 229040 | 1.20 | 0.0
CC1(C)[C@@H](O[C@H]2O[C@H](C(=O)O)[C@@H](O)[C@H](O)[C@H]2O[C@@H]2O[C@H](C(=O)O)[C@@H](O)[C@H](O)[C@H]2O)CC[C@]2(C)[C@H]3C(=O)C=C4[C@@H]5C[C@@](C)(C(=O)O)CC[C@]5(C)CC[C@@]4(C)[C@]3(C)CC[C@@H]12 [Glycyrrhizic acid] | 0 | 0.1 | 0.7 | −0.1 | 0.0 | 163600 | 0.05 | 32.7
C[C@]12CC[C@@H](O)C[C@H]1CC[C@@H]1[C@@H]2C(=O)C[C@]2(C)C(=O)CC[C@@H]12 [11-oxo-etiocholanolone] | 13 | 30.7 | 0.2 | −0.1 | 0.0 | 195960 | 0.62 | 0.0
